From article PMC10803289, “Transport and inhibition mechanism of the human SGLT2–MAP17 glucose transporter” (Nature Structural & Molecular Biology, 2023)
Several values for one entry are separate records, joined by “and”; a condition that tells them apart may be missing. Equal values may be shown once.

Legend:
hSGLT2 F453A [1] = biological target: T1, hSGLT2 F453A (Homo sapiens, UniProt P31639, F453A); experiment: α-MG uptake in HEK293 cells, F453A mutant; assay type: cell-based; parameters: expressed in transfected cells
T1 sequence (P31639 1-672 F453A): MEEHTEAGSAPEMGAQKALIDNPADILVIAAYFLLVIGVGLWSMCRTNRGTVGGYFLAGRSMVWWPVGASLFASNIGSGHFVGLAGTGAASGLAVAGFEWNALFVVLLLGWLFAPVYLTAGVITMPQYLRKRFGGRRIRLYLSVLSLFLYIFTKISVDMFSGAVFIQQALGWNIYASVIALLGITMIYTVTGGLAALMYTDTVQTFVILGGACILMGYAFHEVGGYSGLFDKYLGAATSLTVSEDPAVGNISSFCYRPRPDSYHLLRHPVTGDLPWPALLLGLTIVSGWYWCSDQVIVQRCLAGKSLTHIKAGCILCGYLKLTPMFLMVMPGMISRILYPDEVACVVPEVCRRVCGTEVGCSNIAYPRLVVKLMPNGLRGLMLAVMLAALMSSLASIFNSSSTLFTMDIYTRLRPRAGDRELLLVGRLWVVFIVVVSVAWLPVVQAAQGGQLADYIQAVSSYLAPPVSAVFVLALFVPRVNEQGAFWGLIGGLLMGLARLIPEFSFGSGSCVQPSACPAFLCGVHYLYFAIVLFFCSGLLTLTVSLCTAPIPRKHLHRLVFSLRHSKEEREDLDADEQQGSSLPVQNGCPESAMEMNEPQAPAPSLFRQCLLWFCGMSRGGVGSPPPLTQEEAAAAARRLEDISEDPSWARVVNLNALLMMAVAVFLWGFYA
T1 sequence (Q13113 1-114 partner): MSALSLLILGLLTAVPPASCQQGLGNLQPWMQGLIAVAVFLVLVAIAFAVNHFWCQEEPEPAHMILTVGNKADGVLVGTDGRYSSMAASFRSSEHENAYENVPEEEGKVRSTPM
Excerpt: (§1) hSGLT2 complementary DNA and human MAP17 cDNA were synthesized and codon-optimized for expression in human cell lines. Both cDNAs were cloned into the pcDNA3.4 vector. The hSGLT2 sequence was fused with an N-terminal signal sequence from human trypsinogen 1, a His10 tag, and sfGFP, followed by a human rhinovirus 3C protease (HRV3C protease) recognition site. Point mutations were introduced into this construct using site-directed mutagenesis. These plasmids were utilized for all experimental procedures conducted in this study.
HEK293 cells (ECACC 85120602) were maintained in Dulbecco’s modified Eagle medium (Gibco) supplemented with 10% fetal bovine serum (Thermo Scientific), 2 mM L-glutamine, 100 U ml^−1 benzylpenicillin and 100 µg ml^−1 streptomycin at 37 °C in a humidified atmosphere (5% CO2 in air). HEK293 cells were seeded at 1.0 × 10^5 cells per well in poly-L-lysine coated 24-well plates. The cells in each well were transiently transfected with 0.25 µg hMAP17 plasmid and 0.50 µg hSGLT2 plasmid using Lipofectamine 2000 (Life Technologies) and cultured for 48 h. […] After preincubation, uptake was initiated by replacing the preincubation buffer with extracellular fluid buffer containing 500 μM α-MG in the absence or presence of inhibitors. Uptake was completed by removing the uptake buffer and washing with ice-cold buffer three times, followed by solubilization in 1 N NaOH at room temperature.
Cell lysates were deproteinized by adding acetonitrile containing candesartan as the internal standard. The α-MG concentration was quantified via liquid chromatography–tandem mass spectrometry (LC–MS/MS) using the internal standard method.
Cellular protein content was determined using a bicinchoninic acid protein assay kit (Thermo Fisher Scientific). The uptake of α-MG was expressed as the ratio of concentration in the cells (in pmol per mg protein) to concentration in the medium (in pmol μl^−1); this is known as the cell-to-medium ratio (in μl per mg protein).
In the inhibition study, the cell-to-medium ratio of cells transfected with the empty vector was used as the background. The specific α-MG uptake was calculated by subtracting this background from the total cell-to-medium ratio and normalized to the uptake achieved without the inhibitor. IC50 was calculated via nonlinear regression using GraphPad Prism 8.4.3.
The concentrations of the extract solution from the filter plate and of the cell lysate were quantified using a tandem mass spectrometry QTRAP6500 System (SCIEX) coupled with an ACQUITY UPLC system (Waters) using the internal standard method. Mobile phases A and B used 10 mM of ammonium bicarbonate and acetonitrile, respectively.

[2] = system: β-glucosidase in the intestine; parameters: method as in PMID 21358697; details: O-glucoside hydrolyzed by β-glucosidase in the intestine; cited from earlier work
hSGLT2 S74A = biological target: T2, hSGLT2 S74A (Homo sapiens, UniProt P31639, S74A); assay type: binding; details: S74A
T2 construct: expressed in transfected cells; host or cells: Expi293 cells, crude membrane fraction
T2 sequence (P31639 whole entry S74A, one chain of several): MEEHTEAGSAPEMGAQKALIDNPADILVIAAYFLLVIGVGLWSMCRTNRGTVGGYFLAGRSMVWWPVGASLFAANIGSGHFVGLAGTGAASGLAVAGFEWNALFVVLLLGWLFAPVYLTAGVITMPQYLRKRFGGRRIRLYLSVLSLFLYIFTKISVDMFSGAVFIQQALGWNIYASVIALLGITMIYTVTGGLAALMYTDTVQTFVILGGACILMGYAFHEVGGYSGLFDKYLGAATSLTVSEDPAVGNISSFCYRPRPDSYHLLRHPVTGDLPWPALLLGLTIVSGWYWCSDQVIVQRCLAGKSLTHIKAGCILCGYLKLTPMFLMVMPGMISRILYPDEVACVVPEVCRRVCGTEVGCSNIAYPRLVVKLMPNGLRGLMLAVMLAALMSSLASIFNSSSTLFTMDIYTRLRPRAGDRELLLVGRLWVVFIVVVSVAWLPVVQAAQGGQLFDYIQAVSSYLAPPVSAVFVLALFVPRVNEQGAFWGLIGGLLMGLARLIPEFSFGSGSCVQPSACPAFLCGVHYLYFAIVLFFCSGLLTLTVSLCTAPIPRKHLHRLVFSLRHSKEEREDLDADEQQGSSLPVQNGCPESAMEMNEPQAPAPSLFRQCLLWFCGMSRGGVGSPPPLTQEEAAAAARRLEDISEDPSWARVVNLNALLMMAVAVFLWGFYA
Excerpt: as §1
To examine the inhibition of binding to the crude membrane, mammalian Expi293 cells were co-transfected with the hMAP17 and hSGLT2 plasmids, as described. The cells were collected and disrupted by sonication in a hypotonic buffer (50 mM HEPES–NaOH (pH 7.5), 10 mM KCl and protease inhibitor cocktail) or Na^+-free hypotonic buffer (50 mM Tris–HCl (pH 7.5), 10 mM KCl and protease inhibitor cocktail). The cell debris were removed by centrifugation (2,000g, 5 min, 4 °C). The membrane fraction was collected by ultracentrifugation (112,000g, 30 min, 4 °C) and stored at −80 °C before use. […] The extract solution from the filter plate was diluted with water containing candesartan as an internal standard, and the SGLT2 inhibitor concentration was quantified via LC–MS/MS.
(§2) Nonspecific binding was measured using the crude membrane of nontransfected Expi293 cells. Specific binding was calculated by subtracting nonspecific binding from the binding of hSGLT2-expressing cells. Specific binding was normalized to hSGLT2 protein expression levels, measured via FSEC. The equilibrium dissociation constant (Kd) and maximum number of binding sites (Bmax) were calculated via nonlinear regression in GraphPad Prism 8.4.3. […]
The concentrations of the extract solution from the filter plate and of the cell lysate were quantified using a tandem mass spectrometry QTRAP6500 System (SCIEX) coupled with an ACQUITY UPLC system (Waters) using the internal standard method. […]

hSGLT2 F453A [3] = biological target: T1, hSGLT2 F453A; experiment: SGLT2 inhibitor-binding assay (AS-MS), crude membrane, F453A mutant; parameters: expressed in transfected cells; host or cells: Expi293 cells, crude membrane fraction; details: 30 nM canagliflozin, replicates
Excerpt: as §1
To examine the inhibition of binding to the crude membrane, mammalian Expi293 cells were co-transfected with the hMAP17 and hSGLT2 plasmids, as described. […] The extract solution from the filter plate was diluted with water containing candesartan as an internal standard, and the SGLT2 inhibitor concentration was quantified via LC–MS/MS.
as §2

O=C(CCc1ccc(O)cc1)c1c(O)cc(O)cc1O[C@@H]1O[C@H](CO)[C@@H](O)[C@H](O)[C@H]1O [Phlorizin]
α-MG uptake (% of control) (hSGLT2 F453A [1]; Phlorizin 0.3 nM): 102.6 % of control and 120.9 % of control and 125.2 % of control | α-MG uptake (% of control) (hSGLT2 F453A [1]; Phlorizin 1 nM): 103.4 % of control and 113.9 % of control and 124.6 % of control | α-MG uptake (% of control) (hSGLT2 F453A [1]; Phlorizin 3 nM): 96.6 % of control and 95.6 % of control and 68.3 % of control | α-MG uptake (% of control) (hSGLT2 F453A [1]; Phlorizin 10 nM): 133.1 % of control and 118.1 % of control and 89.5 % of control | α-MG uptake (% of control) (hSGLT2 F453A [1]; Phlorizin 30 nM): 123.6 % of control and 119.1 % of control and 101.2 % of control | α-MG uptake (% of control) (hSGLT2 F453A [1]; Phlorizin 100 nM): 126.1 % of control and 70.5 % of control and 71.8 % of control | metabolic stability [2]: poor | Bmax1 (hSGLT2 S74A; phlorizin, mean ± SEM n=3): 1.16 ± 0.07 pmol/mg-protein

Cc1ccc([C@@H]2O[C@H](CO)[C@@H](O)[C@H](O)[C@H]2O)cc1Cc1ccc(-c2ccc(F)cc2)s1 [Canagliflozin]
Canagliflozin binding (% of WT) (hSGLT2 F453A [3]): 4.952 % of WT and 11.6565 % of WT and 16.2768 % of WT | Canagliflozin binding (% of WT) (hSGLT2 S74A; 30 nM canagliflozin, replicates): 75.2559 % of WT and 78.5839 % of WT and 93.2268 % of WT

CO[C@H]1O[C@H](CO)[C@@H](O)[C@H](O)[C@H]1O [α-MG, α-methyl-D-glucopyranoside]
α-MG uptake (hSGLT2 F453A [1]; Fig. 3h): 21.78 μL/mg-protein and 20.01 μL/mg-protein and 27.75 μL/mg-protein
